Experimental data reported in patent US20220354811A1, “METHODS AND COMPOSITIONS FOR MODULATING MACROPHAGES POLARIZATION” (INSERM (INSTITUT NATIONAL DE LA SANTÉ ET DE LA RECHERCHE …, priority 2019, published 2022).

Key:
human primary monocytes = conditions: literature (Jacquel et al., Blood 2009, Sci Reports 2018); cited from earlier work
[1] = system: bleomycin-induced pulmonary fibrosis; assay: Bleomycin-induced lung fibrosis in mice; assay type: in vivo; conditions: subcutaneous 18 μg/g body weight twice a day for three weeks; bleomycin-treated mice
Description: FIG. 7. Pharmacologic and genetic inhibition of caspase-8 prevents bleomycin-induced pulmonary fibrosis. (A) Quantification of Sirius Red labeling intensity. […] Each dot or square is an individual mouse. *P<0.05 according to Mann-Whitney test. (B) Quantification of airspace number/mm2 of parenchymal tissue. Results expressed as fold change in treated compared to control mice as in B. *P<0.05 according to Mann-Whitney test. (C) Quantification of Sirius Red labeling intensity. Results expressed as fold change in treated compared to control mice, C8 KO+bleomycin compared to C8 KO as in B. *P<0.05 according to Mann-Whitney test. (D) Quantification of airspace number/mm2 of parenchymal tissue. Results are expressed as fold change in treated compared to untreated wild-type mice, as in panel E. *P<0.05 according to Mann-Whitney test. (E) Cytokines were measured in broncho-alveolar lavage fluid collected from bleomycin-treated wild-type (wt) and LysM-Cre/Caspase-8 flox/flox (C8 KO) mice treated with bleomycin. Results are expressed as fold-changes compared to untreated mice. *P<0.05, **P<0.01 according to Mann-Whitney test. […]
Procedures were approved by our Institutional Ethical Committee (CEEA 26) and the French Ministry of Research (#9861). […] To quantify airspace number, tissue sections 4-μm stained with Sirius Red were scanned using a NanoZoomer-SQ (Hamamatsu Corporation, Japan). […]

primary human monocytes = assay: Cell death in CSF-1-treated differentiating monocytes (AnnexinV/DAPI flow cytometry); assay type: cell-based
Description: FIG. 1. […] (A) Macrophagic differentiation of monocytes from 3 different healthy donors was examined by 3-color flow cytometric analysis. The results are expressed as percentage of CD71/CD163 or CD16/CD163 double positive cells and represent the mean±SD of 3 independent experiments performed in duplicate. (B) Cell death from 3 different healthy donors was examined by flow cytometry analysis. The results are expressed as percentage of AnnexinV/DAPI double positive cells and represent the mean±SD of 3 independent experiments performed in duplicate. n.s. denotes not statistically significant according to a paired student t test. *P<0.05, **P<0.01, ***P<0.001 according to a paired student t test (versus d2).
To analyze the macrophagic differentiation of monocytes, the cells were washed with ice-cold phosphate buffered saline (PBS, Life Technologies, 14190169), incubated at 4° C. for 10 min in PBS/bovine serum albumin (BSA 0.5%, Dutscher, 871002) with anti-CD16, anti-CD71 and anti-CD163 or isotype controls (Miltenyi and BD Biosciences, catalog numbers were 130-113-396, 130-097-628 and 551374). Finally, the cells were washed and fixed in 2% paraformaldehyde (EMS, 15710). To perform macrophage polarization, purified monocytes were plated at 0.3×10^6 per mL in RPMI 1640 medium with glutamax-I supplemented with 10% (vol/vol) fetal bovine serum plus CSF-1 for 5+2 days to differentiate into M0 macrophages. 20 ng/mL IL-4 (Miltenyi, 130-094-117) was added after 5 days of differentiation for two days to polarize into M2-macrophages. To analyze the macrophage polarization, cells were detached using PBS/EDTA/BSA, washed with PBS, and incubated at 4° C. for 10 min in PBS/bovine serum albumin with anti-CD200R (Biolegend, 329308), anti-CD206 (Miltenyi, 130-100-034) and anti-CD163 (Miltenyi, 130-097-628) or isotype controls. Finally, the cells were washed and fixed in 2% paraformaldehyde (EMS, 15710). Fluorescence was measured with a MACSQuant® Analyzer (Miltenyi, Paris, France). To analyze the cell death, cells were washed with ice-cold PBS and incubated at 4° C. for 15 min in a specific buffer (10 mM HEPES, 150 mM NaCl, 5 mM KCl, 1 mM MgCl2, 1 mM CaCl2) with AnnexinV-FITC (Miltenyi, 130-097-928) and DAPI (Sigma-Aldrich, D9542). Fluorescence was measured with a MACSQuant® Analyzer (Miltenyi, Paris, France). To analyze the ability of macrophages to phagocyte bacteria, we used Vybrant® Phagocytosis Assay Kit according manufacture's instruction (ThermoFisher, V-6694). […] Fluorescence, that indicate the internalization of particles, was measured with a MACSQuant® Analyzers (Miltenyi, France). Trypan blue solution was used to quench the fluorescence from particles that were not internalized. […]

[2] = system: CSF-1-derived human macrophages; assay: IL-4-induced M2 polarization of CSF-1-derived macrophages (flow cytometry CD200R/CD206, CD200R/CD163); assay type: cell-based
Description: FIG. 6. […] Human monocytes were differentiated during 7 days with 100 ng/mL CSF-1. […] The results are expressed as MFI and represent the mean of 3 independent experiments performed in duplicate. **P<0.01 according to a paired student t test (B) Macrophage polarization was evaluated by 3-color flow cytometric analysis. The percentage indicates cells that express both CD206/CD200R or CD163/CD200R. The results represent the mean±SD of 3 independent experiments performed in duplicate. **P<0.01, ***P<0.001 according to a paired student t test. Human monocytes were differentiated during 5 days with 100 ng/mL CSF-1 and then polarized into M2-macrophages (IL-4) for 2 days. […] The results are expressed as percentage of CD200R/CD206 or CD200R/CD163 double positive cells and represent the mean±SD of 3 independent experiments performed in duplicate.
To analyze the macrophagic differentiation of monocytes, the cells were washed with ice-cold phosphate buffered saline (PBS, Life Technologies, 14190169), incubated at 4° C. for 10 min in PBS/bovine serum albumin (BSA 0.5%, Dutscher, 871002) with anti-CD16, anti-CD71 and anti-CD163 or isotype controls (Miltenyi and BD Biosciences, catalog numbers were 130-113-396, 130-097-628 and 551374). Finally, the cells were washed and fixed in 2% paraformaldehyde (EMS, 15710). To perform macrophage polarization, purified monocytes were plated at 0.3×10^6 per mL in RPMI 1640 medium with glutamax-I supplemented with 10% (vol/vol) fetal bovine serum plus CSF-1 for 5+2 days to differentiate into M0 macrophages. 20 ng/mL IL-4 (Miltenyi, 130-094-117) was added after 5 days of differentiation for two days to polarize into M2-macrophages. […] Fluorescence was measured with a MACSQuant® Analyzer (Miltenyi, Paris, France). […] Fluorescence was measured with a MACSQuant® Analyzer (Miltenyi, Paris, France). […] Fluorescence, that indicate the internalization of particles, was measured with a MACSQuant® Analyzers (Miltenyi, France). Trypan blue solution was used to quench the fluorescence from particles that were not internalized. […]

SMILES | effect on CSF-1-induced monocyte differentiation (human primary monocytes) | lung fibrosis intensity (Sirius Red staining intensity and air space) [1] | apoptosis induction in undifferentiated monocytes (primary human monocytes) | DAPI staining (primary human monocytes; higher concentrations (3 μM)) | toxicity for primary human monocytes (primary human monocytes; low concentrations (up to 2 μM)) | Annexin V staining (primary human monocytes; low concentrations, CSF-1, 48 h) | M1-like markers ([2]; 5 days CSF-1 then IL-4 2 days) | M2-like polarization of M0 macrophages induced by IL4 ([2]; 5 days CSF-1 then IL-4 2 days) | generation of CD200R+/CD206+ and CD200R+/CD163+ double-positive cells ([2]; IL4-polarized macrophages, Emricasan added 16 h before IL-4)
CC(C)[C@H](NC(=O)c1ccc2ccccc2n1)C(=O)N[C@@H](CC(=O)O)C(=O)COc1c(F)cccc1F [Q-VD-OPh] | inhibits |  |  |  |  |  |  |  | 
C[C@H](NC(=O)C(=O)Nc1ccccc1C(C)(C)C)C(=O)N[C@@H](CC(=O)O)C(=O)COc1c(F)c(F)cc(F)c1F [Emricasan, (S)-3-((S)-2-(2-((2-(tert-Butyl)phenyl)amino)-2-oxoacetamido)propanamido)-4-oxo-5-(2,3,5,6-tetrafluorophenoxy)pentanoic acid] |  | dramatically decreases | did not induce apoptosis | slightly increased DAPI staining | not toxic | failed to induced significant loss of Annexin V staining | induced M1-like markers | dampened | inhibited
